Data: patent US8426604B2 (Janssen Pharmaceutica NV, priority 2010, dated 2013)

Experiments:
[1] = target: T1, ERR1 (also known as ERR-α or ERR-1) (Homo sapiens, UniProt P11474); assay: TR-FRET assay (disruption of co-activator peptide binding); assay type: biochemical; conditions: 6His-tagged ERR1LBD, GST-hSRC2 co-activator peptide; average of 3 independent experiments
T1 sequence (P11474 193-421 limits assumed): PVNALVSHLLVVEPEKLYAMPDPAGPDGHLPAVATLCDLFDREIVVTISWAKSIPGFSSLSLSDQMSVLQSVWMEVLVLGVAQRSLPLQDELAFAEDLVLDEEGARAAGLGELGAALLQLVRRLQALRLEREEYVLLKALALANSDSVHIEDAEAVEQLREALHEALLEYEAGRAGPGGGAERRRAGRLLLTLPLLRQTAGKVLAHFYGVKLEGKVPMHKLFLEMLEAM
Protocol: Time-Resolved Fluorescence Resonance Energy Transfer (TR-FRET) experiments were performed to examine the functional response of ERR1 (also known as ERR-α or ERR-1) ligands. The TR-FRET assay described herein relied on the conformation of ERR1 for binding to a co-activator peptide: when a test compound binds to ERR1 and alters its conformation, it can disrupt the binding of the co-activator peptide. The components of this homogeneous secondary assay included: the ^6His-tagged-ERR1LBD, a GST-labeled-hSRC2 co-activator polypeptide and a fluorescent donor/acceptor pair from CIS bio international htrf/bioassays (Bedford, Mass.) using both an α-GST Europium Cryptate (Eu) label and an α^6His-XL665 (allophycocyanin) fluorophore.
For TR-FRET measurements, the reaction was buffered in 25 mM Tris pH 8, 2.5 mM Hepes, 20 mM KCl, 1 mM DTT, and 0.05 mg/mL BSA (-lipids). The final concentrations of reagents were 6 nM of ERR1LBD, 6 nM GST-SRC-2 peptide, 30 nM Eu cryptate, and 7.5 nM XL665. Reactions were allowed to reach equilibrium at 25° C. for 4-18 hours before collecting data on the Analyst from LJL Biosystems (Molecular Devices Sunnyvale, Calif.). As a time-resolved method, the samples were excited at […] and emission was collected for 1 ms at both 615 and 665 nm with delays of 400 and 75 μs, respectively. Dose response curves were fitted using a hyperbolic equation and the data reported is the average of 3 independent experiments.

[2] = system: Zucker fa/fa male rats; assay: Zucker fa/fa Rat Model Assay; assay type: in vivo; conditions: dosed orally once a day for 4 days, blood collected at day 5
Source text: Zucker fa/fa is a monogenic model of frank diabetes due to a mutation on the fa gene truncating the leptin receptor and preventing its interaction with its peptide hormone. This mutation results in a hyperphagic phenotype and the rodent develops obesity, hyperlipidemia, fasting hyperglycemia and insulin resistance. Zucker fa/fa male rats were received at four weeks of age and allowed to acclimate for one week. At five weeks of age the animals were single housed in cages in a temperature-controlled room with 12-hour light/dark cycle. The rats were allowed ad libitum access to water and food and throughout the study were maintained on a Purina 5008 diet. Animals were sorted based primarily on fed insulin levels and circulating triglycerides. Animals were dosed orally once a day in the morning for 4 days. The vehicle used was either 20% HPβCD (Hydroxypropyl Beta Cyclodextrin) or 15% Vitamin E/30% PEG-400 (Polyethylene Glycol 400). Fed insulin and triglycerides were measured using blood collected from the tail vein at day 5. Serum plasma samples were prepared by centrifugation in EDTA (Ethylenediaminetetraacetic acid) containing tubes, transferred into 96 well plates and stored at −80° C.

Row | Structure (SMILES) | EC50 [1] [nM] | % Lowering Fed Insulin Levels [2] [%] | % Lowering Fed Triglyceride Levels [2] [%]
1 | CN(C1=NC(=O)/C(=C/c2ccc3c(cnn3Cc3ccc(Cl)cc3C(F)(F)F)c2)S1)[C@@H](CO)C(=O)O [Compound 15, 2S-({5-[1-(4-Chloro-2-trifluoromethyl-benzyl)-1H-indazol-5-ylmethylene]-4-oxo-4,5-dihydro-thiazol-2-yl}-methyl-amino)-3-hydroxy-propionic acid] | 23 | 40 | 41
2 | CN(C1=NC(=O)/C(=C/c2ccc3c(cnn3Cc3ccc(C(F)(F)F)cc3C(F)(F)F)c2)S1)C1CCN(CC(N)=O)CC1 [Compound 52, 2-(4-{[-5-({1-[2,4-Bis(trifluoromethyl)benzyl]-1H-indazol-5-yl}methylidene)-4-oxo-4,5-dihydro-1,3-thiazol-2-yl](methyl)amino}piperidin-1-yl)acetamide] | 13 | 30 | 38
3 | CN(CC(=O)O)C1=NC(=O)/C(=C/c2ccc3c(cnn3Cc3ccc(C(F)(F)F)cc3C(F)(F)F)c2)S1 [Compound 58, ({5-[1-(2,4-Bis-trifluoromethyl-benzyl)-1H-indazol-5-ylmethylene]-4-oxo-4,5-dihydro-thiazol-2-yl}-methyl-amino)-acetic acid] | 38 | – | –
4 | CN(C1=NC(=O)/C(=C/c2ccc3c(cnn3Cc3ccc(C(F)(F)F)cc3C(F)(F)F)c2)S1)[C@H]1C[C@@H](CO)N(CC(N)=O)C1 [Compound 59, 2-[4-({5-[1-(2,4-Bis-trifluoromethyl-benzyl)-1H-indazol-5-ylmethylene]-4-oxo-4,5-dihydro-thiazol-2-yl}-methyl-amino)-2-hydroxymethyl-pyrrolidin-1-yl]-acetamide] | 27 | – | –
5 | CN(CC(=O)O)C1=NC(=O)/C(=C/c2ccc3c(cnn3Cc3ccc(C(C)(C)O)cc3C(F)(F)F)c2)S1 [Compound 61, [(5-{1-[4-(1-Hydroxy-1-methyl-ethyl)-2-trifluoromethyl-benzyl]-1H-indazol-5-ylmethylene}-4-oxo-4,5-dihydro-thiazol-2-yl)-methyl-amino]-acetic acid] | 1200 | – | –

More lines, in order of falling EC50 [1], values ahead:

Row | EC50 [1] [nM] | Structure (SMILES) | % Lowering Fed Insulin Levels [2] [%] | % Lowering Fed Triglyceride Levels [2] [%]
6 | 25 | CONC(=O)[C@H]1C[C@H](N(C)C2=NC(=O)/C(=C/c3ccc4c(cnn4Cc4ccc(Cl)cc4C(F)(F)F)c3)S2)CN1 [Compound 60, 4-({5-[1-(4-Chloro-2-trifluoromethyl-benzyl)-1H-indazol-5-ylmethylene]-4-oxo-4,5-dihydro-thiazol-2-yl}-methyl-amino)-pyrrolidine-2-carboxylic acid methoxy-amide] | – | –
7 | 18 | CN1CCC(N(C)C2=NC(=O)/C(=C/c3ccc4c(cnn4Cc4ccc(C(F)(F)F)cc4C(F)(F)F)c3)S2)CC1 [Compound 20, 5-[1-(2,4-Bis-trifluoromethyl-benzyl)-1H-indazol-5-ylmethylene]-2-[methyl-(1-methyl-piperidin-4-yl)-amino]-thiazol-4-one] | 40 | 34
8 | 17 | CN(CC(=O)O)C1=NC(=O)/C(=C/c2ccc3c(cnn3Cc3ccc(O)cc3C(F)(F)F)c2)S1 [Compound 62, ({5-[1-(4-Hydroxy-2-trifluoromethyl-benzyl)-1H-indazol-5-ylmethylene]-4-oxo-4,5-dihydro-thiazol-2-yl}-methyl-amino)-acetic acid] | – | –
9 | 15 | CN(C1=NC(=O)/C(=C/c2ccc3c(cnn3Cc3ccc(C(F)(F)F)cc3C(F)(F)F)c2)S1)[C@@H]1CCN(CC(N)=O)C1 [Compound 56, 2-[(3R)-3-{[5-({1-[2,4-Bis(trifluoromethyl)benzyl]-1H-indazol-5-yl}methylidene)-4-oxo-4,5-dihydro-1,3-thiazol-2-yl](methyl)amino}pyrrolidin-1-yl]acetamide] | – | –
10 | 15 | CN(C1=NC(=O)/C(=C/c2ccc3c(cnn3Cc3ccc(Cl)cc3C(F)(F)F)c2)S1)[C@@H]1CCN(CC(N)=O)C1 [Compound 57, 2-[(3R)-3-({5-[1-(4-Chloro-2-trifluoromethyl-benzyl)-1H-indazol-5-ylmethylene]-4-oxo-4,5-dihydro-thiazol-2-yl}-methyl-amino)-pyrrolidin-1-yl]-acetamide] | – | –
